The term pIC50 denotes the negative decadic logarithm of the IC50, by convention in mol/L.

Each structure is given as a SMILES string. pIC50: −log10 of the molar value. Where two headings read alike, the source gives them in different places.

One experiment concerns Human IL2 promoter. In words: Human IL2 promoter reporter gene assay (RGA) in Jurkat cells. The note with it: Jurkat clone K22 290_H23, anti-CD28 mAb + PMA stimulation 5.5 h. The experiment is classed as cell-based. The procedure, abridged:
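Transfected Jurkat clone K22 290_H23 cells were pre-incubated with compounds 30 min at 37 °C, then stimulated 5.5 h with anti-CD28 mAb (15E8, 3 μg/ml) plus PMA (1 μg/ml). IL2-promoter reporter activity was read as BriteLitePlus bioluminescence.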
(A reporter such as luciferase makes a cellular process visible.)

Experiment [1] addresses T1, cIAP2-MALT1 fusion protein (Homo sapiens, UniProt Q9UDY8). The note with it: read-out: NFkappaB reporter gene assay IC50; HEK293 stably expressing cIAP2-MALT1, luciferase, 24 h compound incubation.
Protocol: (§1) For the measurement of compound inhibition, 0.25 μl of test compound were mixed with 12.5 μl of enzyme in wells of the 384-well plates, and incubated for 60 minutes at room temperature (22° C.). After that, 12.5 μl of substrate was added, and the enzymatic reaction was allowed to proceed for 60 minutes at room temperature (22° C.). […] The DMSO content was between 0.9 and 1% (v/v). […] The IC50 value was calculated from the plot of percentage inhibition versus inhibitor concentration using non-linear regression analysis software (Origin, OriginLab Corporation, USA). The data were fitted using a 4 Parameter Logistic Model, characterized by the following equation: y=A2+(A1−A2)/(1+(x/IC50)^p) where y is the %-inhibition at the inhibitor concentration, x. A1 is the lowest inhibition value, and A2 the maximum inhibition value.
In experiment [2] the target is C-domain of MALT1 (amino acids 329-824) (Homo sapiens (Human), UniProt Q9UDY8). In words: MALT1 biochemical assay (fluorescence lifetime enzyme activity assay). The note with it: 60 min pre-incubation, 2.5 nM enzyme, 1 μM peptide substrate.
Sequence of C-domain of MALT1 (amino acids 329-824) (Q9UDY8 329-824): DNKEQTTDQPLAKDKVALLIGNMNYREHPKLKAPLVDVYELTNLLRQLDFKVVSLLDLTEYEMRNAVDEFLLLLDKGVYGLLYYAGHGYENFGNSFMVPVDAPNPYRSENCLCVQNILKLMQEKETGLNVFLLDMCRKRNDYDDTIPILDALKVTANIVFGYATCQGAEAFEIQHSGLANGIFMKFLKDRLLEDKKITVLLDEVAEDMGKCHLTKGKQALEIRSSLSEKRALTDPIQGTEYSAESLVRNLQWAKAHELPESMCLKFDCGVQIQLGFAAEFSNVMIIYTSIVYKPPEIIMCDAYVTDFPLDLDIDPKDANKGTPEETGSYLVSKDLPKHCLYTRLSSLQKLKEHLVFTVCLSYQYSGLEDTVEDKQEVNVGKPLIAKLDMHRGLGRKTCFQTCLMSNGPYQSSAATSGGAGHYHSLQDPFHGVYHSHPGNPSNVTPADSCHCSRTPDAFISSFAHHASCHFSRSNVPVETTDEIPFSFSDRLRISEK
For experiment [3], the target named is T1, cIAP2-MALT1 fusion protein. In words: cell-based.
Protocol: as §1

T1 sequence (Q9UDY8 2-824 limits assumed): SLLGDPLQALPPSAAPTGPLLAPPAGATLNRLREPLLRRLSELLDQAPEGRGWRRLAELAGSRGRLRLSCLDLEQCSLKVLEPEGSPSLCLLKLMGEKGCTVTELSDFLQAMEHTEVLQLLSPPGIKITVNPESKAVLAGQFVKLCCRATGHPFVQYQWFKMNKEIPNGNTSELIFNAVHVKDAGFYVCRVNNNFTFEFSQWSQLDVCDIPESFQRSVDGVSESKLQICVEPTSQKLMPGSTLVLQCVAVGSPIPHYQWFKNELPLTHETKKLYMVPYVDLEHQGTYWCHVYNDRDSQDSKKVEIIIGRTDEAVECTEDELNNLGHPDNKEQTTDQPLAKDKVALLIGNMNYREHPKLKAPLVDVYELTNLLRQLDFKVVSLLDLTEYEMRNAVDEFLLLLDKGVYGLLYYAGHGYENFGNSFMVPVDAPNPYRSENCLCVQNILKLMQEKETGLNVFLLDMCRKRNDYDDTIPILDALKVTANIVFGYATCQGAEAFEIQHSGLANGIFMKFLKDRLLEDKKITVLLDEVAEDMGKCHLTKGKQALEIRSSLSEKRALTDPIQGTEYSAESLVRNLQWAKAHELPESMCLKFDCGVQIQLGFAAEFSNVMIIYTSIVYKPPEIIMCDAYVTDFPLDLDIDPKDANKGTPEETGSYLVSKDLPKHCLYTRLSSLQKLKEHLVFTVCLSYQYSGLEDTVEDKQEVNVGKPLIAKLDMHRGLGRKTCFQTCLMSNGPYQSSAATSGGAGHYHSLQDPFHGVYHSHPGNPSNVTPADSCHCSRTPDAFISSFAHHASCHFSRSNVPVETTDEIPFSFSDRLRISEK

Turning to `CO[C@@H](C)c1c(NC(=O)Nc2ccnc(C(F)(F)F)c2)cnc2cc(C)nn12` [Example 6, (S)-1-(7-(1-methoxyethyl)-2-methylpyrazolo[1,5-a]pyrimidin-6-yl)-3-(2-(trifluoromethyl)pyridin-4-yl)urea], the pIC50 in the experiment on Human IL2 promoter was 7.28; in experiment [1], 6.88.

For the molecule `COc1ncc(NC(=O)Nc2cnc3cc(Cl)nn3c2[C@H](C)OC)cc1Cl` [Example 9, (S)-1-(5-chloro-6-methoxypyridin-3-yl)-3-(2-chloro-7-(1-methoxyethyl)pyrazolo[1,5-a]pyrimidin-6-yl)urea], the pIC50 in the experiment with Human IL2 promoter was 6.96; in experiment [1] it was 7.36.

On to `CC1(c2c(NC(=O)Nc3cnc(-n4nccn4)c(Cl)c3)cnc3cc(Cl)nn23)CC1` [Example 16, 1-(5-chloro-6-(2H-1,2,3-triazol-2-yl)pyridin-3-yl)-3-(2-chloro-7-(1-methylcyclopropyl)pyrazolo[1,5-a]pyrimidin-6-yl)urea], for which the pIC50 in experiment [1] is 7.46.

On to `CC(C)c1c(NC(=O)Nc2cc(Cl)c(-n3nccn3)nc2OC2CCN(C)C2)cnc2cc(Cl)nn12` (centres unmarked) [Example 33, 1-(5-chloro-2-((1-methylpyrrolidin-3-yl)oxy)-6-(2H-1,2,3-triazol-2-yl)pyridin-3-yl)-3-(2-chloro-7-isopropylpyrazolo[1,5-a]pyrimidin-6-yl)urea], for which the negative-log IC50 (pIC50) in experiment [2] was 7.52; in experiment [1], 6.39.

Take `CCC(C)c1c(NC(=O)Nc2cnc(-n3nccn3)c(Cl)c2)cnc2cc(Cl)nn12` (centres unmarked) [Example 35, 1-(7-(sec-butyl)-2-chloropyrazolo[1,5-a]pyrimidin-6-yl)-3-(5-chloro-6-(2H-1,2,3-triazol-2-yl)pyridin-3-yl)urea]: the values for the pIC50 (with Human IL2 promoter; in experiment [1]) were 7.23 and 7.32, respectively.

As for `COCCO[C@@H](C)c1c(NC(=O)Nc2ccnc(C(F)(F)F)c2)cnc2cc(Cl)nn12` [Example 41, (S)-1-(2-chloro-7-(1-(2-methoxyethoxy)ethyl)pyrazolo[1,5-a]pyrimidin-6-yl)-3-(2-(trifluoromethyl)pyridin-4-yl)urea], the pIC50 in experiment [1] was 6.45.

As for `O=C(Nc1cnc(-n2nccn2)c(Cl)c1)Nc1cnc2cc(Cl)nn2c1C1COCCO1` (centres unmarked) [Example 43, 1-(5-chloro-6-(2H-1,2,3-triazol-2-yl)pyridin-3-yl)-3-(2-chloro-7-(1,4-dioxan-2-yl)pyrazolo[1,5-a]pyrimidin-6-yl)urea], the negative logarithm of the IC50 (pIC50) in experiment [1] was 6.80.

Regarding `COCC1(c2c(NC(=O)Nc3ccnc(C(F)(F)F)c3)cnc3cc(Cl)nn23)CCC1` [Example 51, 1-(2-chloro-7-(1-(methoxymethyl)cyclobutyl)pyrazolo[1,5-a]pyrimidin-6-yl)-3-(2-(trifluoromethyl)pyridin-4-yl)urea], the pIC50 in experiment [1] is 6.71.

Take `O=C(Nc1cnc(-n2nccn2)c(C(F)(F)F)c1)Nc1cnc2cc(Cl)nn2c1C1CCCO1` (centres unmarked) [Example 54, 1-(6-(2H-1,2,3-triazol-2-yl)-5-(trifluoromethyl)pyridin-3-yl)-3-(2-chloro-7-(tetrahydrofuran-2-yl)pyrazolo[1,5-a]pyrimidin-6-yl)urea]: the pIC50 is 7.03 in the experiment on Human IL2 promoter and 6.93 in experiment [1].

Consider `O=C(Nc1cnc(-n2nccn2)c(C(F)(F)F)c1)Nc1cnc2cc(Cl)nn2c1-c1ccco1` [Example 63, 1-(6-(2H-1,2,3-triazol-2-yl)-5-(trifluoromethyl)pyridin-3-yl)-3-(2-chloro-7-(furan-2-yl)pyrazolo[1,5-a]pyrimidin-6-yl)urea], for which the negative-log IC50 (pIC50) in experiment [1] is 6.45.

With `O=C(Nc1cnc(-n2nccn2)c(Cl)c1)Nc1cnc2cc(Cl)nn2c1C1CC12CCOC2` (centres unmarked) [Example 68, 1-(5-chloro-6-(2H-1,2,3-triazol-2-yl)pyridin-3-yl)-3-(2-chloro-7-(5-oxaspiro[2.4]heptan-1-yl)pyrazolo[1,5-a]pyrimidin-6-yl)urea], the pIC50 in experiment [1] was 6.23.

In the case of `COc1ncc(NC(=O)Nc2cnc3cc(Cl)nn3c2-c2ccncc2)cc1Cl` [Example 69, 1-(5-chloro-6-methoxypyridin-3-yl)-3-(2-chloro-7-(pyridin-4-yl)pyrazolo[1,5-a]pyrimidin-6-yl)urea], in experiment [1], the pIC50 is 6.17.

Consider `CN1CCOCC1Cc1c(NC(=O)Nc2cnc(-n3nccn3)c(Cl)c2)cnc2cc(Cl)nn12` (centres unmarked) [Example 83, 1-(5-chloro-6-(2h-1,2,3-triazol-2-yl)pyridin-3-yl)-3-(2-chloro-7-((4-methylmorpholin-3-yl)methyl)pyrazolo[1,5-a]pyrimidin-6-yl)urea], for which the pIC50 in experiment [1] is 6.08.

Turning to `COc1ncc(NC(=O)Nc2cnc3cc(Cl)nn3c2C2CCC(C)O2)cc1Cl` (centres unmarked) [Example 87, 1-(5-chloro-6-methoxypyridin-3-yl)-3-(2-chloro-7-(5-methyltetrahydrofuran-2-yl)pyrazolo[1,5-a]pyrimidin-6-yl)urea], the pIC50 in experiment [1] was 6.38.

For the molecule `COCC1(c2c(NC(=O)Nc3cnc(-n4nccn4)c(Cl)c3)cnc3cc(Cl)nn23)CCCO1` (centres unmarked) [Example 91, 1-(5-chloro-6-(2H-1,2,3-triazol-2-yl)pyridin-3-yl)-3-(2-chloro-7-(2-(methoxymethyl)tetrahydrofuran-2-yl)pyrazolo[1,5-a]pyrimidin-6-yl)urea], the figures for the negative-log IC50 (pIC50) (in experiment [2]; in the experiment with Human IL2 promoter; in experiment [3]) were 8.70, 7.05 and 6.98, respectively.

For `CN1CCOC(c2c(NC(=O)Nc3cnc(-n4nccn4)c(Cl)c3)cnc3cc(Cl)nn23)C1` (centres unmarked) [Example 116, 1-(5-chloro-6-(2H-1,2,3-triazol-2-yl)pyridin-3-yl)-3-(2-chloro-7-(4-methylmorpholin-2-yl)pyrazolo[1,5-a]pyrimidin-6-yl)urea], the negative logarithm of the IC50 (pIC50) in experiment [1] is 6.16.

`CC(C)c1c(NC(=O)Nc2cnc(-n3cc(CN)cn3)c(Cl)c2)cnc2cc(Cl)nn12` [Example 118, 1-(6-(4-(aminomethyl)-1H-pyrazol-1-yl)-5-chloropyridin-3-yl)-3-(2-chloro-7-isopropylpyrazolo[1,5-a]pyrimidin-6-yl)urea]: the results for the pIC50 (in experiment [2]; in the experiment on Human IL2 promoter; in experiment [3]) were 7.55, 6.95 and 6.59, respectively.

Regarding `C[C@H](c1c(NC(=O)Nc2cnc(-n3nccn3)c(Cl)c2)cnc2cc(Cl)nn12)N(C)C` [Example 121, (R)-1-(5-chloro-6-(2H-1,2,3-triazol-2-yl)pyridin-3-yl)-3-(2-chloro-7-(1-(dimethylamino)ethyl)pyrazolo[1,5-a]pyrimidin-6-yl)urea], in experiment [1], the pIC50 was 6.66.

With `C[C@@H](c1c(NC(=O)Nc2cnc(-n3nccn3)c(Cl)c2)cnc2cc(Cl)nn12)N(C)C` [Example 122, (S)-1-(5-chloro-6-(2H-1,2,3-triazol-2-yl)pyridin-3-yl)-3-(2-chloro-7-(1-(dimethylamino)ethyl)pyrazolo[1,5-a]pyrimidin-6-yl)urea], the values for the pIC50 (with Human IL2 promoter; in experiment [1]) were 7.77 and 7.37, respectively.

Consider `COC[C@H](OC)c1c(NC(=O)Nc2cnc(-n3nccn3)c(Cl)c2)cnc2cc(Cl)nn12` [Example 126, (R)-1-(5-chloro-6-(2H-1,2,3-triazol-2-yl)pyridin-3-yl)-3-(2-chloro-7-(1,2-dimethoxyethyl)pyrazolo[1,5-a]pyrimidin-6-yl)urea], for which the pIC50 in experiment [2] is 8.30; in the experiment with Human IL2 promoter, 7.24; in experiment [3] it was 6.92.

Values taken from patent US9815842B2, “Pyrazolo pyrimidine derivatives and their use as MALT1 inhibitors” (Novartis AG, priority 2014, dated 2017).
